Data: article PMC12217109, “Development of novel benzamide class I selective lysine deacetylase inhibitors as potent anticancer agents” (Journal of Enzyme Inhibition and Medicinal Chemistry, 2025)
pIC50: −log10 of the molar value. Entries after “also recorded” stand apart in the source; their conditions may differ.

Experiments:
[1] = biological target: HDAC4 (Homo sapiens, UniProt P56524); assay: Inhibition of individual recombinant KDACs
[2] = biological target: HDAC6 (Homo sapiens, UniProt Q9UBN7); assay: Inhibition of individual recombinant KDACs
[3] = system: A2780 human ovarian tumour xenograft; assay: A2780 human ovarian tumour xenograft efficacy study; assay type: in vivo, mice; settings: 100 mg/kg i.p. days 0–4 and 7–11
Text: (§1) Female CD-1 (Crl:CD1-Foxn1^nu) immunodeficient nude mice aged 6–12 weeks were used (Charles River, Margate UK). Mice were kept in stainless steel cages housed in isolation cabinets in an air-conditioned room with regular alternating cycles of light and darkness, receiving Teklad 2018 diet (Envigo, Blackthorn, UK) and water ad libitum. Before experimentation, all mice were allowed to acclimatise for one week to their environment. Environmental enrichment was provided in the form of Perspex “mouse houses”, chewing blocks and exercise wheels.
To assess in vivo compound efficacy, mice were implanted subcutaneously in the abdominal flanks with 2–3 mm^3 -fragments of A2780 human ovarian tumour xenograft tumours, whilst under brief general inhalation anaesthesia (2% isoflurane). Treatments were initiated when tumours reached approximately 32 mm^3 and mice randomly assigned to cohorts (Twelve mice; n = 6 per group). […] Tumour volume, via calliper measurements, and body weight were assessed daily from initiation of treatment. The cut-off points for in-study termination being a > 15% body weight loss over a 72-h period and the tumour not exceeding 15 mm in the longest diameter. All mice were euthanised by isoflurane anaesthesia followed by cervical dislocation […]

[4] = system: leukemic cell lines; assay: NCI-60 cytotoxicity screen, leukaemic cell lines; assay type: cell-based; settings: Homo sapiens; NCI-60, range over cell lines; read-out: cytotoxicity IC50 against leukemic cell lines
Text: Compounds 3–7 were submitted to the US National Cancer Institute (NIH, Bethesda, Maryland) for screening against the NCI-60 panel of human cancer cell lines, as per standard protocol.

[5] = biological target: HDAC10 (Homo sapiens, UniProt Q969S8); assay: Inhibition of individual recombinant KDACs
[6] = biological target: HDAC5 (Homo sapiens, UniProt Q9UQL6); assay: Inhibition of individual recombinant KDACs
[7] = Maximum tolerated dose evaluation in nude mice; assay type: in vivo
Text: as §1
For evaluation of the maximum tolerated dose (MTD), two mice were treated at each of the three dose levels evaluated ([…]). […] Mice were observed daily for signs of deleterious effects and bodyweight measured frequently. […] If no deleterious effects were seen after at least 14 days of study, then the animals were euthanised by isoflurane anaesthesia followed by cervical dislocation, and the dose considered non-toxic.

[8] = biological target: HDAC2 (Homo sapiens, UniProt Q92769); assay: Inhibition of individual recombinant KDACs
Chain of HDAC2 (Q92769 whole entry): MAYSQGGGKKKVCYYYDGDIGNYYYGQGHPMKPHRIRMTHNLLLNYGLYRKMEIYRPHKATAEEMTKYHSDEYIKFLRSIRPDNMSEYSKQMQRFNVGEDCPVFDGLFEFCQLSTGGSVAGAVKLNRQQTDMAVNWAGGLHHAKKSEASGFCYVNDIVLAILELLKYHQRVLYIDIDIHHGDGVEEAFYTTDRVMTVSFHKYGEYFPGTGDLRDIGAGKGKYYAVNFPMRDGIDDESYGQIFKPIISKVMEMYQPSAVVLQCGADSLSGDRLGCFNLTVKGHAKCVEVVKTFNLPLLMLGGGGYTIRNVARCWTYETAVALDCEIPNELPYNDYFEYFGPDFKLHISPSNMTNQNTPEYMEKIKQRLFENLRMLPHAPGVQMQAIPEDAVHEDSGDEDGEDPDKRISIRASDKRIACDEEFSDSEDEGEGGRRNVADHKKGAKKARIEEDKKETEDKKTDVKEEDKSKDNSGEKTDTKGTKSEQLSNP

Chain of HDAC5 (Q9UQL6 whole entry): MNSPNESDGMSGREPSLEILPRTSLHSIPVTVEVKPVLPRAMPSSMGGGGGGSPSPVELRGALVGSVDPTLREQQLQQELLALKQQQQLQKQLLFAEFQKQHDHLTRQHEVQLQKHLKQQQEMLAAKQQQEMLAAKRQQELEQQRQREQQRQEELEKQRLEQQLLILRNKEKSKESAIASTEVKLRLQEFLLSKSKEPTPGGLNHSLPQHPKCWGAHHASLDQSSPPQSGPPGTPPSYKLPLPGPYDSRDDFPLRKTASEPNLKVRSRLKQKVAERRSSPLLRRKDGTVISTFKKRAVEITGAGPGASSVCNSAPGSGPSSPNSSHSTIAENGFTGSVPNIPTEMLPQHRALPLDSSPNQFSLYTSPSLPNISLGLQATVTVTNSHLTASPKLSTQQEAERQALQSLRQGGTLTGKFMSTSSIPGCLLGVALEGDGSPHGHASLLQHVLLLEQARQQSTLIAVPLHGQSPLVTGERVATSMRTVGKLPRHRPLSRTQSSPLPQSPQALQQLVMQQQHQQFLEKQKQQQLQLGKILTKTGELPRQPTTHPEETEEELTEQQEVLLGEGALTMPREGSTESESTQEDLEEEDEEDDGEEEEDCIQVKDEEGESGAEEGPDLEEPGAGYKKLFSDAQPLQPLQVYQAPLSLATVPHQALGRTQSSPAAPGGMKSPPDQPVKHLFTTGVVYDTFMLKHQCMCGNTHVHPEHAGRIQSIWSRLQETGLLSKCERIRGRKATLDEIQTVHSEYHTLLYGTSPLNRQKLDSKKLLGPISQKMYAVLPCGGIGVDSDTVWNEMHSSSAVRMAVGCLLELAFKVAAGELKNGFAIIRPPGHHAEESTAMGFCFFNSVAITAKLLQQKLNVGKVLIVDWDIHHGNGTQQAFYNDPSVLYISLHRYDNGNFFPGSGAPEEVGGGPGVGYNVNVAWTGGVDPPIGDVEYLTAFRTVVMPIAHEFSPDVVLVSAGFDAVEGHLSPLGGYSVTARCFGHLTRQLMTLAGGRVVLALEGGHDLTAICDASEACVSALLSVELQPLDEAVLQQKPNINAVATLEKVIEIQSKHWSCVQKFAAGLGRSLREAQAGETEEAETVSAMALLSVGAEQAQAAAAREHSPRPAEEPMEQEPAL
Chain of HDAC10 (Q969S8 whole entry): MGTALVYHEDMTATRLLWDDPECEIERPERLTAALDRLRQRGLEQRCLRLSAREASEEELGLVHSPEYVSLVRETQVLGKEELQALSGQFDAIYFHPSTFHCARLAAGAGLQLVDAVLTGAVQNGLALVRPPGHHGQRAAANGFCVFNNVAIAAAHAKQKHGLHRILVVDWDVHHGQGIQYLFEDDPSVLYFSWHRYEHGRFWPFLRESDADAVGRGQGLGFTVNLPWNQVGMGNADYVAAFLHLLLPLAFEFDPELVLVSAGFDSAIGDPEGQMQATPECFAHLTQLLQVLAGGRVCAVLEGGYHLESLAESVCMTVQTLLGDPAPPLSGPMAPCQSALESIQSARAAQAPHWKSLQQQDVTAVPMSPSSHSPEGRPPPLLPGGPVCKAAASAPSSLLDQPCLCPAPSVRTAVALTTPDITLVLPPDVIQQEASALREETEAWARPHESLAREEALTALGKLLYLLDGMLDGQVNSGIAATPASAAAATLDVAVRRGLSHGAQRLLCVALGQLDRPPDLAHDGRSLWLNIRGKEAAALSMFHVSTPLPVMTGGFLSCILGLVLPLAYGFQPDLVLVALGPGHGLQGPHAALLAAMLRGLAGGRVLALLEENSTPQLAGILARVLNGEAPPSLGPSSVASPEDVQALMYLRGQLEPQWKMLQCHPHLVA
Chain of HDAC4 (P56524 whole entry): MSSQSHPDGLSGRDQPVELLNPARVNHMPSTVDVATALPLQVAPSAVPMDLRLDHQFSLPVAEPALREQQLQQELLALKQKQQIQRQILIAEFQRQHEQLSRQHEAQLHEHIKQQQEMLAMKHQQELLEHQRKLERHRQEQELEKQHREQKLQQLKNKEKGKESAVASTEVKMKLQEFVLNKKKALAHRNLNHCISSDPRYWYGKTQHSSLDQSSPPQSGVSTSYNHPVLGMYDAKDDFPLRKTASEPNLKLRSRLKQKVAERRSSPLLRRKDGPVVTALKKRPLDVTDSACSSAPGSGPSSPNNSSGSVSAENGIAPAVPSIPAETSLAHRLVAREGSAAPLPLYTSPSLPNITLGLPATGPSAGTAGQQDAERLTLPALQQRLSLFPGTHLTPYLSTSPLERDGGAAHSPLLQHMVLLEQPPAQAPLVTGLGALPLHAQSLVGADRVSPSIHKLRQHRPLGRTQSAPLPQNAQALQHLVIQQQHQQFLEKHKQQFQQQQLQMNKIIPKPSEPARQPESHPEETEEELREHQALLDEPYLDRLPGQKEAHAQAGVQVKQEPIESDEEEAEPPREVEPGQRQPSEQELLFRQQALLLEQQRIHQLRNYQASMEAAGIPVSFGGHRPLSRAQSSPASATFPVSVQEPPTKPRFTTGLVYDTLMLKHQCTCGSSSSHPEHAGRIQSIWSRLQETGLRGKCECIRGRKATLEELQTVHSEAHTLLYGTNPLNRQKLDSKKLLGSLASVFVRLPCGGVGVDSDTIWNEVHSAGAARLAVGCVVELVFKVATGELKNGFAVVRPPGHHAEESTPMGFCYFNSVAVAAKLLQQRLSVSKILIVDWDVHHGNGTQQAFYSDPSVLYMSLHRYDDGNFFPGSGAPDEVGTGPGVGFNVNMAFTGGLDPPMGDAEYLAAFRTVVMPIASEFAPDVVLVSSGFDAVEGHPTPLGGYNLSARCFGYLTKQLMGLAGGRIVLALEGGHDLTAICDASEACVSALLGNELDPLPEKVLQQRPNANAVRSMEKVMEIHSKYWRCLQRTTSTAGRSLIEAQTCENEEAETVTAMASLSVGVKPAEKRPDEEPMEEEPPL
Chain of HDAC6 (Q9UBN7 whole entry): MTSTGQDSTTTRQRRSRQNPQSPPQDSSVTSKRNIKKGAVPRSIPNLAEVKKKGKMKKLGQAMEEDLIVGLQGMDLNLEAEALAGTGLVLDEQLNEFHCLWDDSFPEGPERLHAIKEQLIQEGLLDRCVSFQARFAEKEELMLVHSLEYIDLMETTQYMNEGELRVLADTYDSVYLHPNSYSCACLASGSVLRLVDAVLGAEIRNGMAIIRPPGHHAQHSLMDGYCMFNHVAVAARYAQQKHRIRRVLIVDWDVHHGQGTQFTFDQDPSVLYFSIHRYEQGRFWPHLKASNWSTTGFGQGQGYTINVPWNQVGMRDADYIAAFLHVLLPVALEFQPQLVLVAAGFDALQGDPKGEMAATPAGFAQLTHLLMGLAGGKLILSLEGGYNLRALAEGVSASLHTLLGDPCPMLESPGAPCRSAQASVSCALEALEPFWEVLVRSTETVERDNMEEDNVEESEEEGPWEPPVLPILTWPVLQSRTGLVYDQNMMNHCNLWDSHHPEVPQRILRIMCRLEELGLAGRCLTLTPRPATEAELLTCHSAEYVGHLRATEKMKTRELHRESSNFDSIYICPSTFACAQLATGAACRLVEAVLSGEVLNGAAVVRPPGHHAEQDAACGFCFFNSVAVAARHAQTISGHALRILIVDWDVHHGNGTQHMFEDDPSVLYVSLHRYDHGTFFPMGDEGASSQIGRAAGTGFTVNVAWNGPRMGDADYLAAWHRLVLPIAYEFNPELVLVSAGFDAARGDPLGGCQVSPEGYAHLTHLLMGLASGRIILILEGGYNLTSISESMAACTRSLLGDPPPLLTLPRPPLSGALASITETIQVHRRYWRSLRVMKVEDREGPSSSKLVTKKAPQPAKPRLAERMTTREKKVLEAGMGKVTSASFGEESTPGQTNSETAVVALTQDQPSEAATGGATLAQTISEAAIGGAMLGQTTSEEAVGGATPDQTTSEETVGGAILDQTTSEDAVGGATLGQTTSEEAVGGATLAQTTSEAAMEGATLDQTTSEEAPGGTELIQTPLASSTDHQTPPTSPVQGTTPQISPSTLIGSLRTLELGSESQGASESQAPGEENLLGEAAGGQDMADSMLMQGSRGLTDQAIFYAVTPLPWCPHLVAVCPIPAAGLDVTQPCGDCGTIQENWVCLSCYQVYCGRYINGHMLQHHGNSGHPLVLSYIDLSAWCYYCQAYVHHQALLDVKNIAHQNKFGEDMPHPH

In the case of `C=C(CN1CCN(c2cccc(C(F)(F)F)n2)CC1)c1ccc(C(=O)Nc2ccccc2N)cc1` [Compound 7, N-(2-aminophenyl)-4–(3-(4–(6-(trifluoromethyl)pyridin-2-yl)piperazin-1-yl)prop-1-en-2-yl)benzamide], the pIC50 [1] was < 5.00, the pIC50 [2] was < 5.00 and the “weight loss / toxicity during treatment” value [3] was “No significant weight loss or overt toxicity; also recorded: did not induce significant weight loss or detrimental toxicity”. The pIC50 [4] was 6.07 to 6.55, the pIC50 [5] was < 5.00 and the pIC50 [6] was < 5.00. For the same compound, the systemic toxicity ([7]; 100 mg/kg i.p., 5 consecutive days) was “No systemic toxicity”, the MTD ([7]; female, CD-1 nude (Crl:CD1-Foxn1^nu), mouse, in vivo, ip, single dose on 5 consecutive days) was 100 mg/kg and the pIC50 [8] was 5.40.
